Test results as given in patent US20260159536A1, “AKR1C3-ACTIVATED DNA ALKYLATING AGENT, AND MEDICAL APPLICATION THEREOF” (ASCENTAWITS PHARMACEUTICALS, LTD., priority 2021, published 2026).

Assay: in vitro
Conditions: for half-life at 5 µM: hepatocyte cytosol
Description: (1) Compound A for test, progesterone positive control, and 100 mM stock solutions of AST-3021 inhibitor were prepared and stored in the freezer (−10° C. to −30° C.).
1) Negative control group: at different time points (0 and 60 min), 30 μL/well of hepatocyte cytosol suspension containing 7.5 μM of sample for test was distributed in a 96-well plate. Three replicate wells were prepared in parallel.
2) Positive control group: at different time points (0, 5, 15, 30, 45 and 60 min), 30 μL/well of hepatocyte cytosol suspension containing 7.5 μM of the positive control was distributed in a 96-well plate. Three replicate wells were prepared in parallel.
3) Normal reaction group: at different time points (0, 5, 15, 30, 45 and 60 min), 30 μL/well of hepatocyte cytosol suspension containing 7.5 μM of sample for test was distributed in a 96-well plate. Three replicate wells were prepared in parallel.
4) Inhibition reaction group: at different time points (0, 5, 15, 30, 45 and 60 min), 30 μL/well of hepatocyte cytosol suspension containing […] of sample for test and 4.5 μM of the inhibitor was distributed in a 96-well plate. Three replicate wells were prepared in parallel.
6) 0 min samples: after 150 μL/well of acetonitrile containing the internal standard was added, then 15 μL/well of pre-heated NADPH working solution was added to the samples of normal reaction group, inhibition reaction group and positive control group, and 15 μL/well of pre-heated potassium phosphate buffer was added to the samples of negative control group.
7) Other samples (5, 15, 30, 45 and 60 min): for normal reaction group, inhibition reaction group and positive control group, 15 μL/well of pre-heated NADPH working solution was added to start the reaction; for negative control group, 15 μL/well of pre-heated potassium phosphate buffer was added. The reaction plates were then continued to incubate in a 37° C. water bath and the reactions were stopped by the addition of 150 μL/well of stop solution at the corresponding time points (5, 15, 30, 45 and 60 min).
The concentration of analyte in each sample was expressed as a peak area ratio (peak area analyte/peak areainternal standard), then the peak area ratio at 0 min was used as a reference to calculate the % Remaining at each time point of the incubation, and the ln logarithmic value of the % Remaining was linearly fitted to the incubation time and the half-life was calculated according to the following formula.
In the absence of AST-3021, 5 μM of progesterone was co-incubated with 2 mM of NADPH and 1 mg/mL of hepatocyte cytosol for 0-60 min as a positive control.

SMILES: O=[N+]([O-])c1ccc(C(OP(=O)(N2CC2)N2CC2)C(F)(F)F)cc1Oc1ccc(-c2ccc(F)cc2)c(F)c1 (racemic) [Compound A]
- half-life at 5 µM (CD-1, mouse, Metabolic parameter t1/2, mouse, 2 mM NADPH, no AST-3021 (normal reaction / positive control group), 5 μM): 8.52 h
- half-life at 5 µM (CD-1, mouse, Metabolic parameter t1/2, mouse, negative control group (no NADPH, no AST-3021), 5 μM): 3.72 h
- half-life at 5 µM (CD-1, mouse, half-life, mouse, with NADPH and AST-3021): 2.34 h
- half-life at 5 µM (CD-1, mouse, half-life, mouse, with NADPH, no AST-3021): 8.52 h
- half-life at 5 µM (CD-1, mouse, with AST-3021 (AKR1C3 inhibitor), 3 μM, Metabolic parameter t1/2, mouse, 2 mM NADPH + 3 μM AST-3021 (inhibition reaction group), 5 μM): 2.81 h
- half-life at 5 µM (SD, rat, Metabolic parameter t1/2, rat, 2 mM NADPH, no AST-3021 (normal reaction / positive control group), 5 μM): 2.18 h
- half-life at 5 µM (SD, rat, Metabolic parameter t1/2, rat, negative control group (no NADPH, no AST-3021), 5 μM): 1.83 h
- half-life at 5 µM (SD, rat, with AST-3021 (AKR1C3 inhibitor), 3 μM, Metabolic parameter t1/2, rat, 2 mM NADPH + 3 μM AST-3021 (inhibition reaction group), 5 μM): 1.69 h
- half-life at 5 µM (Sprague-Dawley (SD), rat, half-life, with NADPH and AST-3021): 1.69 h
- half-life at 5 µM (Sprague-Dawley (SD), rat, half-life, with NADPH, no AST-3021): 2.18 h
- half-life at 5 µM (cynomolgus (printed as 'machins'), monkey, Metabolic parameter t1/2, monkey, 2 mM NADPH, no AST-3021 (normal reaction / positive control group), 5 μM): 2.53 h
- half-life at 5 µM (cynomolgus (printed as 'machins'), monkey, Metabolic parameter t1/2, monkey, negative control group (no NADPH, no AST-3021), 5 μM): 2.87 h
- average % Remaining (human, 60 min, no NADPH, no AST-3021): 38.96%
- average % Remaining (human, 60 min, with NADPH, no AST-3021): 43.34%
- half-life at 5 µM (human, Metabolic parameter t1/2, human, 2 mM NADPH, no AST-3021 (normal reaction / positive control group), 5 μM): 0.831 h
- half-life at 5 µM (human, Metabolic parameter t1/2, human, negative control group (no NADPH, no AST-3021), 5 μM): 0.735 h
- half-life at 5 µM (human, half-life, with NADPH and AST-3021): 1.08 h
- half-life at 5 µM (human, half-life, with NADPH, no AST-3021): 0.831 h
- half-life at 5 µM (human, with AST-3021 (AKR1C3 inhibitor), 3 µM, Metabolic parameter t1/2, human, 2 mM NADPH + 3 μM AST-3021 (inhibition reaction group), 5 μM): 1.08 h
- % Remaining (human, with NADPH and AST-3021): 53.65%
- Metabolic parameter k (human, 2 mM NADPH + 3 μM AST-3021 (inhibition reaction group), 5 μM): 0.0107
- average % Remaining (human, 2 mM NADPH + 3 μM AST-3021 (inhibition reaction group), 5 μM, 0 min): 100.00%
- average % Remaining (human, 2 mM NADPH + 3 μM AST-3021 (inhibition reaction group), 5 μM, 5 min): 83.74%
- average % Remaining (human, 2 mM NADPH + 3 μM AST-3021 (inhibition reaction group), 5 μM, 15 min): 78.58%
- average % Remaining (human, 2 mM NADPH + 3 μM AST-3021 (inhibition reaction group), 5 μM, 30 min): 67.01%
- average % Remaining (human, 2 mM NADPH + 3 μM AST-3021 (inhibition reaction group), 5 μM, 45 min): 66.39%
- average % Remaining (human, 2 mM NADPH + 3 μM AST-3021 (inhibition reaction group), 5 μM, 60 min): 53.65%
- Metabolic parameter k (human, 2 mM NADPH, no AST-3021 (normal reaction / positive control group), 5 μM): 0.0139
- average % Remaining (human, 2 mM NADPH, no AST-3021 (normal reaction / positive control group), 5 μM, 0 min): 100.00%
- average % Remaining (human, 2 mM NADPH, no AST-3021 (normal reaction / positive control group), 5 μM, 5 min): 88.27%
- average % Remaining (human, 2 mM NADPH, no AST-3021 (normal reaction / positive control group), 5 μM, 15 min): 79.04%
- average % Remaining (human, 2 mM NADPH, no AST-3021 (normal reaction / positive control group), 5 μM, 30 min): 70.02%
- average % Remaining (human, 2 mM NADPH, no AST-3021 (normal reaction / positive control group), 5 μM, 45 min): 52.35%
- average % Remaining (human, 2 mM NADPH, no AST-3021 (normal reaction / positive control group), 5 μM, 60 min): 43.34%
- Metabolic parameter k (human, negative control group (no NADPH, no AST-3021), 5 μM): 0.0157
- average % Remaining (human, negative control group (no NADPH, no AST-3021), 5 μM, 0 min): 100.00%
- average % Remaining (human, negative control group (no NADPH, no AST-3021), 5 μM, 60 min): 38.96%
- half-life at 5 µM (machin (cynomolgus), monkey, with AST-3021 (AKR1C3 inhibitor), 3 µM, Metabolic parameter t1/2, monkey, 2 mM NADPH + 3 μM AST-3021 (inhibition reaction group), 5 μM): 2.59 h
- half-life at 5 µM (machins, monkey, half-life, with NADPH and AST-3021): 2.59 h
- half-life at 5 µM (machins, monkey, half-life, with NADPH, no AST-3021): 2.53 h
- average % Remaining (monkey, 60 min, no NADPH, no AST-3021): 78.57%
- average % Remaining (monkey, 60 min, with NADPH, no AST-3021): 73.28%
- % Remaining (monkey, with NADPH and AST-3021): 69.52%
- Metabolic parameter k (monkey, 2 mM NADPH + 3 μM AST-3021 (inhibition reaction group), 5 μM): 0.0045
- average % Remaining (monkey, 2 mM NADPH + 3 μM AST-3021 (inhibition reaction group), 5 μM, 0 min): 100.00%
- average % Remaining (monkey, 2 mM NADPH + 3 μM AST-3021 (inhibition reaction group), 5 μM, 5 min): 96.83%
- average % Remaining (monkey, 2 mM NADPH + 3 μM AST-3021 (inhibition reaction group), 5 μM, 15 min): 101.19%
- average % Remaining (monkey, 2 mM NADPH + 3 μM AST-3021 (inhibition reaction group), 5 μM, 30 min): 90.97%
- average % Remaining (monkey, 2 mM NADPH + 3 μM AST-3021 (inhibition reaction group), 5 μM, 45 min): 88.36%
- average % Remaining (monkey, 2 mM NADPH + 3 μM AST-3021 (inhibition reaction group), 5 μM, 60 min): 69.52%
